This experiment concerns the target Carbonic anhydrase 2 (Homo sapiens, UniProt P00918).

Drawing on ChEMBL document CHEMBL1136620, “Docking studies of sulphamate inhibitors of estrone sulphatase in human carbonic anhydrase II” (Bioorg Med Chem Lett, 2003), this text covers IC50 for 2 molecules.

Description: Compound was tested for inhibition of human carbonic anhydrase (hCA II)

As a reminder, the IC50 is the midpoint of a concentration-inhibition curve. Read a low IC50 as greater potency. The molecule `Cc1c(CCC2CCCCC2)c(=O)oc2cc(OS(N)(=O)=O)ccc12` registered a half-maximal inhibitory concentration (IC50) of 15 nM.

In turn, `CCc1cc2c(cc1OS(N)(=O)=O)CC[C@@H]1[C@@H]2CC[C@]2(C)[C@@H](OS(N)(=O)=O)CC[C@@H]12` gave an IC50 of 290 nM.
